Data as given in US20230398130A1, “METHODS AND COMPOSITIONS FOR DIFFERENTIATING STEM CELLS” (Massachusetts Institute of Technology, priority 2020, published 2023).

How the values were obtained:
ISC-enriched organoids [1] = test: Primary screen, 384-well 2.5-D organoid differentiation (ENR+CD, 6 days, Target Selective Inhibitor Library, vs whole-plate median): ATP (CellTiter-Glo 3D, CTG); conditions: for Dose.FC.CTG (log 2 fold change, ATP) / Dose.FC.CTG (log 2 fold change): vs plate median; for Dose.FC.CTG: FC vs plate median; for Z.CTG: standard z score of FC
ISC-enriched organoids [2] = test: Primary screen, 384-well 2.5-D organoid differentiation (ENR+CD, 6 days): basal lysozyme secretion (LYZ.NS); type: cell-based, murine; conditions: for Dose.FC.LYZ.NS (log 2 fold change, basal lysozyme secretion) / Dose.FC.LYZ.NS (log 2 fold change): vs plate median; for Dose.FC.LYZ.NS: FC vs plate median; for Z.LYZ.NS: standard z score of FC
Excerpt: (§1) High-throughput screening.

ISC-enriched organoids [3] = test: Primary screen, 384-well 2.5-D organoid differentiation (ENR+CD, 6 days): carbachol-induced lysozyme secretion (LYZ.S); type: cell-based, murine; conditions: for Dose.FC.LYZ.S (log 2 fold change, carbachol-induced lysozyme secretion) / Dose.FC.LYZ.S (log 2 fold change): vs plate median; for Dose.FC.LYZ.S: FC vs plate median
Excerpt: as §1

[4] = primary screen, dose 0.08 uM, ENR+CD 6 days
[5] = primary screen, dose 0.40 uM, ENR+CD 6 days
[6] = primary screen, dose 2.00 uM, ENR+CD 6 days
[7] = primary screen, dose 10.00 uM, ENR+CD 6 days
[8] = dose 0.08 uM (1st of 4 lines per treatment; dose not printed in this part)
[9] = dose 0.40 uM (2nd of 4 lines per treatment; dose not printed in this part)

CC(C)C[C@@H](C(=O)N[C@H](C(=O)OC1CCCC1)c1ccccc1)[C@H](O)C(=O)NO [Tosedostat (CHR2797)]
Z.CTG (standard z score) (ISC-enriched organoids [1]; dose 0.08 uM): −0.232 | Dose.FC.CTG (log 2 fold change, ATP) (ISC-enriched organoids [1]; dose 0.08 uM): −0.097 | Z.CTG (standard z score) (ISC-enriched organoids [1]; dose 0.40 uM): 0.123 | Dose.FC.CTG (log 2 fold change, ATP) (ISC-enriched organoids [1]; dose 0.40 uM): 0.051 | Z.CTG (standard z score) (ISC-enriched organoids [1]; dose 2.00 uM): −0.480 | Dose.FC.CTG (log 2 fold change, ATP) (ISC-enriched organoids [1]; dose 2.00 uM): −0.201 | Z.CTG (standard z score) (ISC-enriched organoids [1]; dose 10.00 uM): −1.117 | Dose.FC.CTG (log 2 fold change, ATP) (ISC-enriched organoids [1]; dose 10.00 uM): −0.468 | Z.LYZ.NS (standard z score) (ISC-enriched organoids [2]; dose 0.08 uM): −0.022 | Dose.FC.LYZ.NS (log 2 fold change, basal lysozyme secretion) (ISC-enriched organoids [2]; dose 0.08 uM): −0.002 | Z.LYZ.NS (standard z score) (ISC-enriched organoids [2]; dose 0.40 uM): −0.925 | Dose.FC.LYZ.NS (log 2 fold change, basal lysozyme secretion) (ISC-enriched organoids [2]; dose 0.40 uM): −0.106 | Z.LYZ.NS (standard z score) (ISC-enriched organoids [2]; dose 2.00 uM): −0.432 | Dose.FC.LYZ.NS (log 2 fold change, basal lysozyme secretion) (ISC-enriched organoids [2]; dose 2.00 uM): −0.050 | Z.LYZ.NS (standard z score) (ISC-enriched organoids [2]; dose 10.00 uM): −1.499 | Dose.FC.LYZ.NS (log 2 fold change, basal lysozyme secretion) (ISC-enriched organoids [2]; dose 10.00 uM): −0.172 | Dose.FC.LYZ.S (log 2 fold change, carbachol-induced lysozyme secretion) (ISC-enriched organoids [3]; dose 0.08 uM): −0.027 | Dose.FC.LYZ.S (log 2 fold change, carbachol-induced lysozyme secretion) (ISC-enriched organoids [3]; dose 0.40 uM): −0.134 | Dose.FC.LYZ.S (log 2 fold change, carbachol-induced lysozyme secretion) (ISC-enriched organoids [3]; dose 2.00 uM): −0.128 | Dose.FC.LYZ.S (log 2 fold change, carbachol-induced lysozyme secretion) (ISC-enriched organoids [3]; dose 10.00 uM): −0.276

CC1C(=O)OC2C(O)C34C5CC(C(C)(C)C)C36C(OC(=O)C6O)OC4(C(=O)O5)C12O (stereo not drawn) [Ginkgolide B]
Dose.FC.CTG (ISC-enriched organoids [1]; Dose 0.08 uM, ENR+CD, 6 days): −0.076 log 2 fold change | Z.CTG (ISC-enriched organoids [1]; Dose 0.08 uM): −0.182 | Dose.FC.CTG (ISC-enriched organoids [1]; Dose 0.40 uM, ENR+CD, 6 days): 0.034 log 2 fold change | Z.CTG (ISC-enriched organoids [1]; Dose 0.40 uM): 0.081 | Dose.FC.CTG (ISC-enriched organoids [1]; Dose 2.00 uM, ENR+CD, 6 days): −0.154 log 2 fold change | Z.CTG (ISC-enriched organoids [1]; Dose 2.00 uM): −0.369 | Dose.FC.CTG (ISC-enriched organoids [1]; Dose 10.00 uM, ENR+CD, 6 days): 0.177 log 2 fold change | Z.CTG (ISC-enriched organoids [1]; Dose 10.00 uM): 0.422 | Dose.FC.LYZ.NS (ISC-enriched organoids [2]; Dose 0.08 uM, ENR+CD, 6 days): 0.041 log 2 fold change | Z.LYZ.NS (ISC-enriched organoids [2]; Dose 0.08 uM): 0.353 | Dose.FC.LYZ.NS (ISC-enriched organoids [2]; Dose 0.40 uM, ENR+CD, 6 days): 0.109 log 2 fold change | Z.LYZ.NS (ISC-enriched organoids [2]; Dose 0.40 uM): 0.950 | Dose.FC.LYZ.NS (ISC-enriched organoids [2]; Dose 2.00 uM, ENR+CD, 6 days): 0.061 log 2 fold change | Z.LYZ.NS (ISC-enriched organoids [2]; Dose 2.00 uM): 0.528 | Dose.FC.LYZ.NS (ISC-enriched organoids [2]; Dose 10.00 uM, ENR+CD, 6 days): −0.037 log 2 fold change | Z.LYZ.NS (ISC-enriched organoids [2]; Dose 10.00 uM): −0.326 | Dose.FC.LYZ.S (ISC-enriched organoids [3]; Dose 0.08 uM, ENR+CD, 6 days): 0.034 log 2 fold change | Dose.FC.LYZ.S (ISC-enriched organoids [3]; Dose 0.40 uM, ENR+CD, 6 days): 0.047 log 2 fold change | Dose.FC.LYZ.S (ISC-enriched organoids [3]; Dose 2.00 uM, ENR+CD, 6 days): 0.033 log 2 fold change | Dose.FC.LYZ.S (ISC-enriched organoids [3]; Dose 10.00 uM, ENR+CD, 6 days): −0.035 log 2 fold change

COc1ccc2c(c1)c(CC(=O)N1CCOCC1)c(C)n2C(=O)c1ccc(Cl)cc1 [BML-190]
Dose.FC.CTG (ISC-enriched organoids [1]; [4]): −0.003 log 2 fold change | Z.CTG (ISC-enriched organoids [1]; primary screen, dose 0.08 uM): −0.007 | Dose.FC.CTG (ISC-enriched organoids [1]; [5]): −0.099 log 2 fold change | Z.CTG (ISC-enriched organoids [1]; primary screen, dose 0.40 uM): −0.237 | Dose.FC.CTG (ISC-enriched organoids [1]; [6]): −0.106 log 2 fold change | Z.CTG (ISC-enriched organoids [1]; primary screen, dose 2.00 uM): −0.254 | Dose.FC.CTG (ISC-enriched organoids [1]; [7]): −0.106 log 2 fold change | Z.CTG (ISC-enriched organoids [1]; primary screen, dose 10.00 uM): −0.254 | Dose.FC.LYZ.NS (ISC-enriched organoids [2]; [4]): 0.072 log 2 fold change | Z.LYZ.NS (ISC-enriched organoids [2]; primary screen, dose 0.08 uM): 0.623 | Dose.FC.LYZ.NS (ISC-enriched organoids [2]; [5]): −0.017 log 2 fold change | Z.LYZ.NS (ISC-enriched organoids [2]; primary screen, dose 0.40 uM): −0.152 | Dose.FC.LYZ.NS (ISC-enriched organoids [2]; [6]): 0.116 log 2 fold change | Z.LYZ.NS (ISC-enriched organoids [2]; primary screen, dose 2.00 uM): 1.011 | Dose.FC.LYZ.NS (ISC-enriched organoids [2]; [7]): 0.209 log 2 fold change | Z.LYZ.NS (ISC-enriched organoids [2]; primary screen, dose 10.00 uM): 1.823 | Dose.FC.LYZ.S (ISC-enriched organoids [3]; [4]): 0.060 log 2 fold change | Dose.FC.LYZ.S (ISC-enriched organoids [3]; [5]): −0.037 log 2 fold change | Dose.FC.LYZ.S (ISC-enriched organoids [3]; [6]): 0.017 log 2 fold change | Dose.FC.LYZ.S (ISC-enriched organoids [3]; [7]): 0.067 log 2 fold change

O=S(=O)(c1ccccc1)c1cnc2c(N3CCNCC3)cccc2c1 [SB742457]
Z.CTG (standard z score) (ISC-enriched organoids [1]; Dose 0.08 uM, primary screen): −0.693 | Dose.FC.CTG (log 2 fold change) (ISC-enriched organoids [1]; Dose 0.08 uM, primary screen): −0.290 | Z.CTG (standard z score) (ISC-enriched organoids [1]; Dose 0.40 uM, primary screen): −0.300 | Dose.FC.CTG (log 2 fold change) (ISC-enriched organoids [1]; Dose 0.40 uM, primary screen): −0.126 | Z.CTG (standard z score) (ISC-enriched organoids [1]; Dose 2.00 uM, primary screen): −0.423 | Dose.FC.CTG (log 2 fold change) (ISC-enriched organoids [1]; Dose 2.00 uM, primary screen): −0.177 | Z.CTG (standard z score) (ISC-enriched organoids [1]; Dose 10.00 uM, primary screen): −0.702 | Dose.FC.CTG (log 2 fold change) (ISC-enriched organoids [1]; Dose 10.00 uM, primary screen): −0.294 | Z.LYZ.NS (standard z score) (ISC-enriched organoids [2]; Dose 0.08 uM, primary screen): 0.108 | Dose.FC.LYZ.NS (log 2 fold change) (ISC-enriched organoids [2]; Dose 0.08 uM, primary screen): 0.012 | Z.LYZ.NS (standard z score) (ISC-enriched organoids [2]; Dose 0.40 uM, primary screen): −0.537 | Dose.FC.LYZ.NS (log 2 fold change) (ISC-enriched organoids [2]; Dose 0.40 uM, primary screen): −0.062 | Z.LYZ.NS (standard z score) (ISC-enriched organoids [2]; Dose 2.00 uM, primary screen): 0.598 | Dose.FC.LYZ.NS (log 2 fold change) (ISC-enriched organoids [2]; Dose 2.00 uM, primary screen): 0.069 | Z.LYZ.NS (standard z score) (ISC-enriched organoids [2]; Dose 10.00 uM, primary screen): 0.115 | Dose.FC.LYZ.NS (log 2 fold change) (ISC-enriched organoids [2]; Dose 10.00 uM, primary screen): 0.013 | Dose.FC.LYZ.S (log 2 fold change) (ISC-enriched organoids [3]; Dose 0.08 uM, primary screen): −0.055 | Dose.FC.LYZ.S (log 2 fold change) (ISC-enriched organoids [3]; Dose 0.40 uM, primary screen): −0.029 | Dose.FC.LYZ.S (log 2 fold change) (ISC-enriched organoids [3]; Dose 2.00 uM, primary screen): −0.003 | Dose.FC.LYZ.S (log 2 fold change) (ISC-enriched organoids [3]; Dose 10.00 uM, primary screen): −0.006

CC1(C)CCC(c2ccc(Cl)cc2)=C(CN2CCN(c3ccc(C(=O)NS(=O)(=O)c4ccc(N[C@H](CCN5CCOCC5)CSc5ccccc5)c(S(=O)(=O)C(F)(F)F)c4)cc3)CC2)C1 [ABT-263 (Navitoclax)]
SSMD.CTG_Rep (strictly standardized mean difference) (ISC-enriched organoids [1]; [8]): −0.462 | SSMD.CTG_Rep (strictly standardized mean difference) (ISC-enriched organoids [1]; [9]): −0.777 | Dose.FC.CTG (ISC-enriched organoids [1]; [4]): −0.212 log 2 fold change | Z.CTG (ISC-enriched organoids [1]; primary screen, dose 0.08 uM): −0.507 | Dose.FC.CTG (ISC-enriched organoids [1]; [5]): −0.264 log 2 fold change | Z.CTG (ISC-enriched organoids [1]; primary screen, dose 0.40 uM): −0.631 | Dose.FC.CTG (ISC-enriched organoids [1]; [6]): −0.368 log 2 fold change | Z.CTG (ISC-enriched organoids [1]; primary screen, dose 2.00 uM): −0.878 | Dose.FC.CTG (ISC-enriched organoids [1]; [7]): −0.962 log 2 fold change | Z.CTG (ISC-enriched organoids [1]; primary screen, dose 10.00 uM): −2.298 | SSMD.LYZ.NS_Rep (strictly standardized mean difference) (ISC-enriched organoids [2]; [8]): 0.062 | SSMD.LYZ.NS_Rep (strictly standardized mean difference) (ISC-enriched organoids [2]; [9]): 0.062 | Dose.FC.LYZ.NS (ISC-enriched organoids [2]; [4]): 0.012 log 2 fold change | Z.LYZ.NS (ISC-enriched organoids [2]; primary screen, dose 0.08 uM): 0.104 | Dose.FC.LYZ.NS (ISC-enriched organoids [2]; [5]): 0.007 log 2 fold change | Z.LYZ.NS (ISC-enriched organoids [2]; primary screen, dose 0.40 uM): 0.062 | Dose.FC.LYZ.NS (ISC-enriched organoids [2]; [6]): −0.143 log 2 fold change | Z.LYZ.NS (ISC-enriched organoids [2]; primary screen, dose 2.00 uM): −1.248 | Dose.FC.LYZ.NS (ISC-enriched organoids [2]; [7]): −0.259 log 2 fold change | Z.LYZ.NS (ISC-enriched organoids [2]; primary screen, dose 10.00 uM): −2.259 | SSMD.LYZ.S_Rep (strictly standardized mean difference) (ISC-enriched organoids [3]; [8]): −0.041 | Z.LYZ.S (standard z score) (ISC-enriched organoids [3]; [8]): −0.064 | SSMD.LYZ.S_Rep (strictly standardized mean difference) (ISC-enriched organoids [3]; [9]): −0.134 | Z.LYZ.S (standard z score) (ISC-enriched organoids [3]; [9]): −0.129 | Dose.FC.LYZ.S (ISC-enriched organoids [3]; [4]): −0.010 log 2 fold change | Dose.FC.LYZ.S (ISC-enriched organoids [3]; [5]): −0.020 log 2 fold change | Dose.FC.LYZ.S (ISC-enriched organoids [3]; [6]): −0.205 log 2 fold change | Dose.FC.LYZ.S (ISC-enriched organoids [3]; [7]): −0.400 log 2 fold change
